Data on 11 molecules can be found in patent US8334315B2, “Substituted aromatic carboxamide and urea derivatives as vanilloid receptor ligands” (Gruenenthal GmbH, priority 2009, dated 2012).

For assay [1], the target named is T1, hVR1 (Homo sapiens, UniProt Q8NER1).
T1 construct: expressed in transfected cells; host or cells: CHO K1 cells (ECACC), stably transfected
The assay can be described thus: Functional test on hVR1 after pH stimulus. It counts as cell-based, human being. Also on record: key to IC50 (human being) hVR1, pH: agonist / partial agonist / no effect: AG=agonist; pAG=partial agonist; NE=no effect.

In assay [2] the target is T1, hVR1. The experiment in a line: Functional test on VR1, FLIPR Ca2+ influx in transfected CHO K1 cells, capsaicin. The following applies: for Ki: capsaicin (Cap), includes values given in brackets after pAG, read-out: Ki (human being) [nM] Cap. It counts as cell-based, human being. Details: key to Ki (human being) [nM] Cap: agonist / partial agonist / no effect: AG=agonist; pAG=partial agonist; NE=no effect. The source says: In the process, the Ca^2+ influx is quantified in the FLIPR assay with the aid of a Ca^2+-sensitive dye (type Fluo-4, Molecular Probes Europe BV, Leiden, the Netherlands) in a fluorescent imaging plate reader (FLIPR, Molecular Devices, Sunnyvale, USA), as described hereinafter.
II. Functional Tests Carried Out on the Vanilloid Receptor (VR1)
The agonistic or antagonistic effect of the substances to be tested on the vanilloid receptor 1 (VR1) can also be determined using the following assay. In this assay, the influx of Ca^2+ through the channel is quantified with the aid of a Ca^2+-sensitive dye (type Fluo-4, Molecular Probes Europe BV, Leiden, the Netherlands) in a fluorescent imaging plate reader (FLIPR, Molecular Devices, Sunnyvale, USA).
Chinese hamster ovary cells (CHO K1 cells, European Collection of Cell Cultures (ECACC) United Kingdom) are stably transfected with the VR1 gene. For functional testing, these cells are plated out on poly-D-lysine-coated black 96-well plates having a clear base (BD Biosciences, Heidelberg, Germany) at a density of 25,000 cells/well. The cells are incubated overnight at 37° C. and 5% CO2 in a culture medium (Ham's F12 nutrient mixture, 10% by volume of FCS (foetal calf serum), 18 μg/ml of L-proline). The next day the cells are incubated with Fluo-4 (Fluo-4 2 μM, 0.01% by volume of Pluronic F127, Molecular Probes in HBSS (Hank's buffered saline solution), Gibco Invitrogen GmbH, Karlsruhe, Germany) for 30 minutes at 37° C. Subsequently, the plates are washed three times with HBSS buffer and after further incubation for 15 minutes at RT used for Ca^2+ measurement in a FLIPR assay. The Ca^2+-dependent fluorescence is measured before and after the addition of the substances to be tested (λex wavelength=488 nm, λem=540 nm). Quantification is carried out by measuring the highest fluorescence intensity (FC, fluorescence counts) over time.
The FLIPR protocol consists of 2 substance additions. First the compounds to be tested (10 μM) are pipetted onto the cells and the Ca^2+ influx is compared with the control (capsaicin 10 μM) (% activation based on the Ca^2+ signal after the addition of 10 μM of capsaicin). After 5 minutes' incubation, 100 nM of capsaicin are applied and the Ca^2+ influx is also determined.
Desensitising agonists and antagonists led to suppression of the Ca^2+ influx. The % inhibition is calculated compared to the maximum achievable inhibition with 10 μM of capsaicin.
Starting from the percentage displacement caused by different concentrations of the compounds to be tested of general formula I, IC50 inhibitory concentrations which cause a 50-per cent displacement of capsaicin were calculated. Ki values for the test substances were obtained by conversion by means of the Cheng-Prusoff equation (Cheng, Prusoff; Biochem. Pharmacol. 22, 3099-3108, 1973).
The affinity of the compounds according to the invention for the vanilloid receptor 1 (VR1/TRPV1 receptor) was determined as described hereinbefore (pharmacological methods I and II respectively).

Assay [3] concerns the target T1, hVR1. The experiment in a line: Functional test on human VR1, 45° C. stimulus. It counts as cell-based, human being. Also on record: key to IC50 (human being), 45° C.: agonist / partial agonist / no effect: AG=agonist; pAG=partial agonist; NE=no effect. The following applies: for IC50: read-out: IC50 (human being) [nM], 45° C.
Assay [4] has as its target T2, rat-species vanilloid receptor 1 (VR1/TRPV1) (Rattus norvegicus, UniProt O35433).
T2 construct: endogenous in cells; host or cells: primary cells dissociated from rat dorsal root ganglia (DRG), cultured 2-3 days with NGF
The experiment in a line: Functional testing on the vanilloid receptor 1, FLIPR Ca2+ influx in rat DRG cells, capsaicin. It counts as cell-based. Also on record: key to Ki (rat) [nM] Cap: agonist / partial agonist / no effect: AG=agonist; pAG=partial agonist; NE=no effect. The source says:
I. Functional Testing Carried Out on the Vanilloid Receptor 1 (VRI/TRPV1 Receptor)
The agonistic or antagonistic effect of the substances to be tested on the rat-species vanilloid receptor 1 (VR1/TRPV1) can be determined using the following assay. In this assay, the influx of Ca^2+ through the receptor channel is quantified with the aid of a Ca^2+-sensitive dye (type Fluo-4, Molecular Probes Europe BV, Leiden, the Netherlands) in a fluorescent imaging plate reader (FLIPR, Molecular Devices, Sunnyvale, USA).
Complete medium: 50 ml HAMS F12 nutrient mixture (Gibco Invitrogen GmbH, Karlsruhe, Germany) with
10% by volume of FCS (foetal calf serum, Gibco Invitrogen GmbH, Karlsruhe, Germany, heat-inactivated);
2 mM L-glutamine (Sigma, Munich, Germany);
1% by weight of AA solution (antibiotic/antimyotic solution, PAA, Pasching, Austria) and 25 ng/ml NGF medium (2.5 S, Gibco Invitrogen GmbH, Karlsruhe, Germany)
Cell culture plate: Poly-D-lysine-coated, black 96-well plates having a clear base (96-well black/clear plate, BD Biosciences, Heidelberg, Germany) are additionally coated with laminin (Gibco Invitrogen GmbH, Karlsruhe, Germany), the laminin being diluted with PBS (Ca—Mg-free PBS, Gibco Invitrogen GmbH, Karlsruhe, Germany) to a concentration of 100 μg/ml. Aliquots having a laminin concentration of 100 μg/ml are removed and stored at −20° C. The aliquots are diluted with PBS in a ratio of 1:10 to 10 μg/ml of laminin and respectively 50 μL of the solution are pipetted into a recess in the cell culture plate. The cell culture plates are incubated for at least two hours at 37° C., the excess solution is removed by suction and the recesses are each washed twice with PBS. The coated cell culture plates are stored with excess PBS which is not removed until just before the feeding of the cells.
Preparation of the Cells:
The vertebral column is removed from decapitated rats and placed immediately into cold HBSS buffer (Hank's buffered saline solution, Gibco Invitrogen GmbH, Karlsruhe, Germany), i.e. buffer located in an ice bath, mixed with 1% by volume (per cent by volume) of an AA solution (antibiotic/antimyotic solution, PAA, Pasching, Austria). The vertebral column is cut longitudinally and removed together with fasciae from the vertebral canal. Subsequently, the dorsal root ganglia (DRG) are removed and again stored in cold HBSS buffer mixed with 1% by volume of an AA solution. The DRG, from which all blood remnants and spinal nerves have been removed, are transferred in each case to 500 μL of cold type 2 collagenase (PAA, Pasching, Austria) and incubated for 35 minutes at 37° C. After the addition of 2.5% by volume of trypsin (PAA, Pasching, Austria), incubation is continued for 10 minutes at 37° C. After complete incubation, the enzyme solution is carefully pipetted off and 500 μL of complete medium are added to each of the remaining DRG. The DRG are respectively suspended several times, drawn through cannulae No. 1, No. 12 and No. 16 using a syringe and transferred to a 50 ml Falcon tube which is filled up to 15 ml with complete medium. The contents of each Falcon tube are respectively filtered through a 70 μm Falcon filter element and centrifuged for 10 minutes at 1,200 rpm and RT. The resulting pellet is respectively taken up in 250 μL of complete medium and the cell count is determined.
The number of cells in the suspension is set to 3×10^5 per ml and 150 μL of this suspension are in each case introduced into a recess in the cell culture plates coated as described hereinbefore. In the incubator the plates are left for two to three days at 37° C., 5% by volume of CO2 and 95% relative humidity. […]

T1 sequence (Q8NER1 whole entry): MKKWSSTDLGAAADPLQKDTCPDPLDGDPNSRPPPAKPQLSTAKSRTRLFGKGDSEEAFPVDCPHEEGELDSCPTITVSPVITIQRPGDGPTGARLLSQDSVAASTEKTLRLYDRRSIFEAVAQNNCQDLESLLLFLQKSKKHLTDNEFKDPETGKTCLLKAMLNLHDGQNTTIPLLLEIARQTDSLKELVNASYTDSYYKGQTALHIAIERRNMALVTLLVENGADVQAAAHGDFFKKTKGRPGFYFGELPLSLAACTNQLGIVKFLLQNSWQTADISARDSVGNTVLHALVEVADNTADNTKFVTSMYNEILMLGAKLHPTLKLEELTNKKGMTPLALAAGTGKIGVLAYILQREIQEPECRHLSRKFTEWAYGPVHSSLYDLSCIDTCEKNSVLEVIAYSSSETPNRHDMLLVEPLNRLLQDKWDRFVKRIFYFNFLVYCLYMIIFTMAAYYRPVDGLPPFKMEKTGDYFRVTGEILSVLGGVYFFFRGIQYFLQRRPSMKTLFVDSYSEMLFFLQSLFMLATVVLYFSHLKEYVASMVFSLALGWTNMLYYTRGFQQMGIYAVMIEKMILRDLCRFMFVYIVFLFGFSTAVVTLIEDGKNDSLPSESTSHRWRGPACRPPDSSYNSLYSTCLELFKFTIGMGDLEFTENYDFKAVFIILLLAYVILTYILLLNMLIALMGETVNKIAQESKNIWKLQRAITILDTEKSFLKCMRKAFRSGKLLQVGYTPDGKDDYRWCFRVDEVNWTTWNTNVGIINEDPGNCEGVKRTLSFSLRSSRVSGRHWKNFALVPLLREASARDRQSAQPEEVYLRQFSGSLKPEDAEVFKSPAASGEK
T2 sequence (O35433 whole entry): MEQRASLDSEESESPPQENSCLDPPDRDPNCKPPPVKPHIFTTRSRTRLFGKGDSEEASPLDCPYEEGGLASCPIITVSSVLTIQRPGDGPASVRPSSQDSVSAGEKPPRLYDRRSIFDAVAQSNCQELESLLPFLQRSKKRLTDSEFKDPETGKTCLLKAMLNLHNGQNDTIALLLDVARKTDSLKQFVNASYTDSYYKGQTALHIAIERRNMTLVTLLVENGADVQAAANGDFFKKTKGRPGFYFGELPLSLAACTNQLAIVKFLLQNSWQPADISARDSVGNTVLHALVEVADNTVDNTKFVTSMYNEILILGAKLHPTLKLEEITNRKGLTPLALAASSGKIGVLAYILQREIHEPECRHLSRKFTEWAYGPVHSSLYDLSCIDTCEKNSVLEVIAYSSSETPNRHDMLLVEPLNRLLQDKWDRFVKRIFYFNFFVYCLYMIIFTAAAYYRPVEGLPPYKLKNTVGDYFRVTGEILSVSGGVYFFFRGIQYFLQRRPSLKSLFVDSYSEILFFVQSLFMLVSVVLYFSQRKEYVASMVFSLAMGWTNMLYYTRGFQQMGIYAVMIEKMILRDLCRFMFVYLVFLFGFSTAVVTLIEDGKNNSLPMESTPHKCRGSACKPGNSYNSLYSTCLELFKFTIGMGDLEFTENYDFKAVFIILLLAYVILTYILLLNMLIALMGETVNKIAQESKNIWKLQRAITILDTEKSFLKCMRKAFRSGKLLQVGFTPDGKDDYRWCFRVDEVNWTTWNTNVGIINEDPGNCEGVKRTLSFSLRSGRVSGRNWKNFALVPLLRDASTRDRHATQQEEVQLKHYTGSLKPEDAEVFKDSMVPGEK

Regarding `CC(C(=O)NCc1cc(C(F)(F)F)nn1-c1cccc(Cl)c1)c1ccc2[nH]ccc2c1` (stereo not shown) [Example 31, N-((1-(3-chlorophenyl)-3-(trifluoromethyl)-1H-pyrazol-5-yl)methyl)-2-(1H-indol-5-yl)propanamide], on hVR1 [1], the “IC50 (human being) hVR1, pH: agonist / partial agonist / no effect” value is given as “pAG”. Further, at hVR1 [2], the “Ki (human being) [nM] Cap: agonist / partial agonist / no effect” value is reported as “pAG” and the Ki worked out at 2.4 nM.

Regarding `CC(C(=O)NCc1cc(C(C)(C)C)nn1-c1cccc(Cl)c1)c1cccc2ncccc12` (stereo not shown) [Example 70, N-((3-tert-butyl-1-(3-chlorophenyl)-1H-pyrazol-5-yl)methyl)-2-(quinolin-5-yl)propanamide], the “IC50 (human being) hVR1, pH: agonist / partial agonist / no effect” value on hVR1 [1] is “AG”. Moreover, the “Ki (human being) [nM] Cap: agonist / partial agonist / no effect” value on hVR1 [2] is on record as “AG”. Besides, on hVR1 [3], the “IC50 (human being), 45° C.: agonist / partial agonist / no effect” value is given as “AG”.

In the case of `CC(C(=O)NCc1cc(C(F)(F)F)nn1-c1cccc(Cl)c1)c1ccc2[nH]ncc2c1` (stereo not shown) [Example 35, N-((1-(3-chlorophenyl)-3-(trifluoromethyl)-1H-pyrazol-5-yl)methyl)-2-(1H-indazol-5-yl)propanamide], at hVR1 [1], the “IC50 (human being) hVR1, pH: agonist / partial agonist / no effect” value is recorded as “pAG”. Moreover, on hVR1 [2], the “Ki (human being) [nM] Cap: agonist / partial agonist / no effect” value is given as “pAG” and the Ki worked out at 0.3 nM. Moreover, the “IC50 (human being), 45° C.: agonist / partial agonist / no effect” value on hVR1 [3] is given as “pAG”.

`CC(C(=O)NCc1cc(C(C)(C)C)nn1-c1cccc(Cl)c1)c1cccc2c1OCCO2` (stereo not shown) [Example 14, N-((3-tert-butyl-1-(3-chlorophenyl)-1H-pyrazol-5-yl)methyl)-2-(2,3-dihydrobenzo[b][1,4]dioxin-5-yl)propanamide]: the “Ki (rat) [nM] Cap: agonist / partial agonist / no effect” value in assay [4] is given as “AG”.

In the case of `O=C(NCc1cc(C(F)(F)F)nn1-c1cccc(Cl)c1)Nc1ccc2ncsc2c1` [Example 96, 1-(benzo[d]thiazol-6-yl)-3-((1-(3-chlorophenyl)-3-(trifluoromethyl)-1H-pyrazol-5-yl)methyl)urea], the “IC50 (human being) hVR1, pH: agonist / partial agonist / no effect” value on hVR1 [1] is “pAG”. Moreover, at hVR1 [2], the “Ki (human being) [nM] Cap: agonist / partial agonist / no effect” value is listed as “pAG” and the inhibition constant (Ki) is 7.3 nM.

`O=C(NCc1cc(C(F)(F)F)nn1-c1cccc(Cl)c1)Nc1ccc2c(c1)OCCO2` [Example 84, 1-((1-(3-chlorophenyl)-3-(trifluoromethyl)-1H-pyrazol-5-yl)methyl)-3-(2,3-dihydrobenzo[b][1,4]dioxin-6-yl)urea]: the Ki on hVR1 [2] worked out at 51.6 nM; in assay [4] (capsaicin (Cap), includes values given in brackets after pAG), 181 nM. Also, the IC50 on hVR1 [3] stood at 235 nM.

Consider `CC(C)(C)c1cc(CNC(=O)Nc2cc(F)cc3[nH]ncc23)n(-c2ccccn2)n1` [Example 216, 1-((3-tert-butyl-1-(pyridin-2-yl)-1H-pyrazol-5-yl)methyl)-3-(6-fluoro-1H-indazol-4-yl)urea], for which the Ki at hVR1 [2] amounted to 54 nM. At hVR1 [3], the IC50 came out at 2120 nM.

On to `O=C(NCc1cc(C(F)(F)F)nn1-c1cccc(Cl)c1)Nc1cccc2cnccc12` [Example 110, 1-((1-(3-chlorophenyl)-3-(trifluoromethyl)-1H-pyrazol-5-yl)methyl)-3-(isoquinolin-5-yl)urea], for which the Ki on hVR1 [2] was 0.4 nM. The IC50 on hVR1 [3] was determined as 110 nM.

With `CC(C(=O)NCc1cc(C(F)(F)F)nn1-c1cccc(Cl)c1)c1cccc2c1CCC2O` (stereo not shown) [Example 207, N-((1-(3-chlorophenyl)-3-(trifluoromethyl)-1H-pyrazol-5-yl)methyl)-2-(1-hydroxy-2,3-dihydro-1H-inden-4-yl)propanamide], the Ki on hVR1 [2] came out at 2.4 nM. Also, the inhibition at 10 µM at hVR1 [3] (@ 10 μM, read-out: IC50 (human being), 45° C.: inhibition (as a percentage)) is 14%.

`O=C(NCc1cc(C(F)(F)F)nn1-c1cccc(Cl)c1)Nc1ccc2c(c1)OCO2` [Example 83, 1-(Benzo[d][1,3]dioxol-5-yl)-3-((1-(3-chlorophenyl)-3-(trifluoromethyl)-1H-pyrazol-5-yl)methyl)urea]: the Ki on hVR1 [2] was 50.7 nM. Further, the inhibition at 2.5 µM at hVR1 [3] (@ 2.5 μM, read-out: IC50 (human being), 45° C.: inhibition (as a percentage)) is 16%.

Turning to `Cc1cc2c(C(C)C(=O)NCc3cc(C(F)(F)F)nn3-c3cccc(Cl)c3)cccc2cn1` (stereo not shown) [Example 65, N-((1-(3-chlorophenyl)-3-(trifluoromethyl)-1H-pyrazol-5-yl)methyl)-2-(3-methylisoquinolin-5-yl)propanamide], on hVR1 [1] (@ 10 μM, read-out: IC50 (human being) hVR1, pH: inhibition (as a percentage)), the inhibition at 10 µM is 23%. In addition, at hVR1 [2], the Ki was determined as 0.3 nM. On hVR1 [3], the IC50 came to 780 nM.

By Ki is commonly meant the dissociation constant of the complex between target and ligand, obtained from inhibition or displacement. A word on the IC50: it is the concentration at which inhibition is half-maximal. Usually inhibition stands for the percentage by which the read-out fell short of the control.
